# In patent publication US8952024B2, “Herbicidal pyrimidone derivatives” (E I du Pont de Nemours and Company, priority 2009, dated 2015):
# What was measured:
# Assay type in all cases: in vivo
# [1] = test system: barnyardgrass (Echinochloa crus-galli); assay: Test B flooded paddy test
# Source text: (§1) Plant species in the flooded paddy test consisted of rice (Oryza sativa), umbrella sedge (Cyperus difformis), ducksalad (Heteranthera limosa) and barnyardgrass (Echinochloa crus-galli) grown to the 2-leaf stage for testing. At the time of treatment, test pots were flooded with water to 3 cm above the soil surface, treated by application of test compounds directly to the paddy water, and then maintained at that water depth for the duration of the test.
# (§2) Treated plants and controls were maintained in a greenhouse for 13 to 15 days, after which time all treated plants were visually evaluated and compared to controls. Plant response ratings, summarized in Table B, are based on a scale of 0 to 100 where 0 is no effect and 100 is complete control. A dash (-) response means no test result.
# [2] = test system: ducksalad (Heteranthera limosa); assay: Test B flooded paddy test
# Source text: as §1, §2
# rice (Oryza sativa) = assay: Test B flooded paddy test
# Source text: as §1, §2
# [3] = test system: umbrella sedge (Cyperus difformis); assay: Test B flooded paddy test
# Source text: as §1, §2
# [4] = test system: velvetleaf (Abutilon theophrasti); assay: Test A pre-/postemergence plant response
# Source text: (§3) Seeds of barnyardgrass (Echinochloa crus-galli), large crabgrass (Digitaria sanguinalis), giant foxtail (Setaria faberii), morningglory (Ipomoea spp.), pigweed (Amaranthus retroflexus), velvetleaf (Abutilon theophrasti), wheat (Triticum aestivum) and corn (Zea mays) were planted into a blend of loam soil and sand and treated preemergence with a directed soil spray using test chemicals formulated in a non-phytotoxic solvent mixture which included a surfactant. At the same time these species were also treated with postemergence applications of test compounds formulated in the same manner.
# (§4) Plants ranged in height from two to ten cm and were in the one- to two-leaf stage for the postemergence treatment. Treated plants and untreated controls were maintained in a greenhouse for approximately ten days, after which time all treated plants were compared to untreated controls and visually evaluated for injury. Plant response ratings, summarized in Table A, are based on a 0 to 100 scale where 0 is no effect and 100 is complete control. A dash (-) response means no test result.
# [5] = test system: barnyardgrass (Echinochloa crus-galli); assay: Test A pre-/postemergence plant response; settings: for Barnyardgrass plant response rating: visual injury, 0 to 100 scale (0 no effect, 100 complete control), approx. ten days
# Source text: as §3, §4
# [6] = test system: large crabgrass (Digitaria sanguinalis); assay: Test A pre-/postemergence plant response; settings: for Crabgrass, Large plant response rating: visual injury, 0 to 100 scale (0 no effect, 100 complete control), approx. ten days
# Source text: as §3, §4
# [7] = test system: pigweed (Amaranthus retroflexus); assay: Test A pre-/postemergence plant response
# Source text: as §3, §4
# [8] = test system: wheat (Triticum aestivum); assay: Test A pre-/postemergence plant response
# Source text: as §3, §4
# [9] = test system: morningglory (Ipomoea spp.); assay: Test A pre-/postemergence plant response
# Source text: as §3, §4
# corn (Zea mays) = assay: Test A pre-/postemergence plant response; settings: for Corn plant response rating: visual injury, 0 to 100 scale (0 no effect, 100 complete control), approx. ten days
# Source text: as §3, §4
# [10] = test system: giant foxtail (Setaria faberii); assay: Test A pre-/postemergence plant response
# Source text: as §3, §4
# [11] = Flood (flooded paddy test), 125 g ai/ha, scale 0 to 100, 0 is no effect, 100 is complete control, 13 to 15 days
# [12] = Flood, 31 g ai/ha, scale 0 to 100 (0 no effect, 100 complete control)
# [13] = Postemergence, 125 g ai/ha, 0 to 100 scale where 0 is no effect and 100 is complete control
# [14] = Postemergence, 500 g ai/ha, visual injury, 0 to 100 scale (0 no effect, 100 complete control), approx. ten days
# [15] = Preemergence, 125 g ai/ha, 0 to 100 scale, 0 = no effect, 100 = complete control
# [16] = Preemergence, 500 g ai/ha, 0 to 100 scale, 0 = no effect, 100 = complete control
# [17] = Postemergence, 125 g ai/ha, visual injury, 0 to 100 scale (0 no effect, 100 complete control), approx. ten days
# [18] = Preemergence, 125 g ai/ha, 0 to 100 scale where 0 is no effect and 100 is complete control, approximately ten days
SMILES,"Plant response rating, Velvetleaf [4, 13]","Velvetleaf plant response rating [4, 14]","Plant response rating, Velvetleaf [4, 16]","Plant response rating, Barnyardgrass [5, 13]","Barnyardgrass plant response rating ([5]; Postemergence, 500 g ai/ha)","Plant response rating, Barnyardgrass [5, 16]","Plant response rating, Crabgrass, Large [6, 13]","Crabgrass, Large plant response rating ([6]; Postemergence, 500 g ai/ha)","Plant response rating, Crabgrass, Large [6, 16]","Pigweed plant response rating [7, 14]","Plant response rating, Pigweed [7, 16]","Wheat plant response rating [8, 14]","Plant response rating, Wheat [8, 16]","Morningglory plant response rating [9, 14]","Plant response rating, Morningglory [9, 16]","Plant response rating, Corn (corn (Zea mays); [13])","Corn plant response rating (corn (Zea mays); Postemergence, 500 g ai/ha)","Plant response rating, Corn (corn (Zea mays); [16])","Foxtail, Giant plant response rating [10, 14]","Plant response rating, Foxtail, Giant [10, 16]",other results
CCc1ccc(-n2c(-c3cccc(Br)c3)ncc(C(=O)C3=C(O)CCCC3=O)c2=O)cc1 [Compound 175],100,100,50,50,100,30,40,80,50,100,100,0,0,80,10,0,20,0,80,50,"Plant response rating, Barnyardgrass [1, 11]: 20; Barnyardgrass plant response rating [1, 12]: 0; Plant response rating, Ducksalad [2, 11]: 95; Ducksalad plant response rating [2, 12]: 75; Plant response rating, Rice (rice (Oryza sativa); [11]): 0; Rice plant response rating (rice (Oryza sativa); [12]): 0; Plant response rating, Sedge, Umbrella [3, 11]: 85; Sedge, Umbrella plant response rating [3, 12]: 75; Plant response rating, Velvetleaf [4, 15]: 40; Plant response rating, Barnyardgrass [5, 15]: 0; Plant response rating, Crabgrass, Large [6, 15]: 30; Plant response rating, Pigweed [7, 13]: 100; Plant response rating, Pigweed [7, 15]: 60; Plant response rating, Wheat [8, 13]: 0; Plant response rating, Wheat [8, 15]: 0; Plant response rating, Morningglory [9, 13]: 10; Plant response rating, Morningglory [9, 15]: 0; Plant response rating, Corn (corn (Zea mays); [15]): 0; Plant response rating, Foxtail, Giant [10, 13]: 30; Plant response rating, Foxtail, Giant [10, 15]: 0"
CCCn1c(-c2ccc3c(c2)OCCO3)ncc(C(=O)C2=C(O)C3CCC(C3)C2=O)c1=O (stereo not shown) [Compound 241],100,100,60,90,90,90,50,70,90,80,50,60,40,100,30,20,50,20,90,70,"Plant response rating, Velvetleaf [4, 15]: 20; Plant response rating, Barnyardgrass [5, 15]: 10; Plant response rating, Crabgrass, Large [6, 15]: 20; Plant response rating, Pigweed [7, 13]: 70; Plant response rating, Pigweed [7, 15]: 20; Plant response rating, Wheat [8, 13]: 40; Plant response rating, Wheat [8, 15]: 0; Plant response rating, Morningglory [9, 13]: 100; Plant response rating, Morningglory [9, 15]: 0; Plant response rating, Corn (corn (Zea mays); [15]): 0; Plant response rating, Foxtail, Giant [10, 13]: 80; Plant response rating, Foxtail, Giant [10, 15]: 10"
CCCn1c(-c2ccc3ccccc3c2)ncc(C(=O)C2=C(O)C3CCC(C3)C2=O)c1=O (stereo not shown) [Compound 242],50,90,0,50,90,0,20,60,10,30,0,30,0,100,0,0,20,0,80,0,"Plant response rating, Velvetleaf [4, 15]: 0; Plant response rating, Barnyardgrass [5, 15]: 0; Plant response rating, Crabgrass, Large [6, 15]: 0; Plant response rating, Pigweed [7, 13]: 20; Plant response rating, Pigweed [7, 15]: 0; Plant response rating, Wheat [8, 13]: 0; Plant response rating, Wheat [8, 15]: 0; Plant response rating, Morningglory [9, 13]: 40; Plant response rating, Morningglory [9, 15]: 0; Plant response rating, Corn (corn (Zea mays); [15]): 0; Plant response rating, Foxtail, Giant [10, 13]: 50; Plant response rating, Foxtail, Giant [10, 15]: 0"
O=C(C1=C(O)C2CCC(C2)C1=O)c1cnc(-c2ccccc2)n(C2CCCCCCCCCCC2)c1=O (stereo not shown) [Compound 247],,100,0,30,80,0,40,70,0,90,0,0,0,100,0,0,30,0,30,0,"Plant response rating, Velvetleaf [4, 17]: 100; Plant response rating, Velvetleaf [4, 18]: 0; Plant response rating, Barnyardgrass [5, 18]: 0; Plant response rating, Crabgrass, Large [6, 18]: 0; Plant response rating, Pigweed [7, 17]: 70; Plant response rating, Pigweed [7, 18]: 0; Plant response rating, Wheat [8, 17]: 0; Plant response rating, Wheat [8, 18]: 0; Plant response rating, Morningglory [9, 17]: 100; Plant response rating, Morningglory [9, 18]: 0; Plant response rating, Corn (corn (Zea mays); [18]): 0; Plant response rating, Foxtail, Giant [10, 17]: 0; Plant response rating, Foxtail, Giant [10, 18]: 0"
